Test results reported in patent US20100048900A1, “AGENT FOR TREATMENT OF VASCULAR LEAKS” (priority 2006, published 2010).

Assays:
[1] = test system: human endothelial cells (HUVEC cells); assay: In-vitro inhibition of the interleukin-2 (Proleukin) induced VLS: spherical deformation of HUVEC cells; format: cell-based; details: Proleukin in combination with 20 mM of substance, microscopic assessment after 4 to 6 days
Protocol: In-vitro examinations on the inhibition of the VLS induced by interleukin-2. Using human endothelial cells (HUVEC cells) the inhibition of the IL-2 induced VLS through ectoine and hydroxyectoine was investigated in an in-vitro system. In this context the concentrations of Proleukin® (by Chiron) were determined that lead to the spherical deformation of the HUVEC cells. The spherical deformation of HUVEC cells is considered as a sign for the triggering of the VLS, cf. Baluna et al., PNAS 3957-3962, March 1999. Same as VLS, this phenotype visible under the light microscope is based on the bonding of membrane proteins, the integrins. The cells were incubated with Proleukin solely or in combination with ectoine and hydroxyectoine. To verify the specificity of the compatible solutes also trehalose and glucose were employed additionally. After 4 to 6 days the proportion of normal and spherically deformed cells of a visual field are determined by microscopic assessment.

[2] = test system: NK cells and T cells of healthy-blood donors; assay: Proleukin-induced interferon-γ synthesis of human lymphocytes (ELISA of supernatant); format: cell-based; details: 250 U Proleukin in combination with 20 mM hydroxyectoine, 48 hours, FIG. 2
From the text: Effects of hydroxyectoine on the Proleukin-induced interferon-γ-synthesis of human lymphocytes.
interleukin-2, IL-2, same as Proleukin leads to the activation of immune effector cells which can be determined, inter alia, by an increased interferon-γ secretion of NK cells and T-lymphocytes.
For this purpose NK cells and T cells of healthy-blood donors were isolated by means of the MACS technique (Magnetic Cell Sorting, Milteniy). The of detection of the cells expressing the surface markers CE 56, NKG2D and CD 3 was brought about by FACS analyses.
The cells without further additives have been incubated for 48 hours with 250 U Proleukin or with 250 U Proleukin in combination with 20 mM hydroxyectoine. Following this, the concentration of interferon-γ was determined in the supernatant of the cells with the aid of ELISA (triple determinations from two independent experiments).

SMILES	reduction of the Proleukin-induced VLS phenotype (spherically deformed HUVEC cells; VLS inhibition percentage, FIG. 1) [1]	inhibition of the induction of interferon-γ synthesis (concentration of interferon-γ in the supernatant) [2]
CC1=N[C@H](C(=O)O)[C@@H](O)CN1 [hydroxyectoine, (4S,5S)-5-hydroxy-2-methyl-1,4,5,6-tetrahydropyrimidine-4-carboxylic acid]	significantly reduce the VLS phenotype	does not inhibit the induction of the interferon-γ synthesis, on the contrary slightly increased values were found
CC1=N[C@H](C(=O)O)CCN1 [ectoine, (4S)-2-methyl-1,4,5,6-tetrahydropyrimidine-4-carboxylic acid]	significantly reduce the VLS phenotype	
